In data set [1] the test system is P62 and LC3-II. Description: Western blot of autophagy markers in CRC cells. In kind it is cell-based, human. The settings on record: HT29, HCT116 and RKO cells; BMX (5 and 10 μM) with or without 50 μM TMZ; FIG. 18A. How it is done: Western blot analysis was used to examine the indicated protein expression levels under various concentrations of BMX (0-10 μM), and SAHA, VPA or PCI-34051 in the presence or absence of TMZ (50 μM) or OXP (5 μM) of the tested cell lines. SDS-PAGE and Western blot analysis was performed on lysates prepared as outlined previously. The specific primary antibodies against acetyl-histone H3 (Lys9/Lys14), acetyl-histone H4 (Lys8), P53, acetyl-p53 (Lys382), phospho-p53 (Ser15), P21, P16, MGMT, phosphor-H2AX (S139), E2F1, E2F3, Cleaved Caspase-3, Cleaved Caspase-8, Cleaved Caspase-7, Cleaved Caspase-9, PARP, Bax, Bcl-2, Bid, Bim, Bak, Puma, β-catenin, phospho-β-catenin(Ser/33/37/41), GSK3β, phospho-GSK3β (Ser 9), c-Myc, Cyclin D1, P62, LC3B, CD133, CD44, SOX-2 and HDAC8 were used for detection, and GAPDH, α-tubulin or β-actin was used as the internal control. After incubation with the primary antibodies, and then incubated with horseradish peroxidase (HRP)-conjugated secondary antibodies, the HRP signals were detected with a chemical HRP substrate. Signal of each target protein was visualized by incubation with an enhanced chemiluminescent reagent and exposure to X-ray film.

Data set [2] has as its system HT29 cells. Briefly: Annexin V/PI flow cytometric analysis of apoptosis, HT29. Conditions: BMX, 48 hrs. The data set is classed as cell-based, human. Here is the method: Apoptosis induction in different doses of BMX (0-10 μM) in the presence or absence of TMZ (50 μM) was assayed by the detection of membrane externalization of phosphatidylserine with the with the CF®488A Annexin V and PI Apoptosis Kit (Fremont, Calif., USA) following the manufacturer's instructions. All samples were then immediately analyzed by flow cytometry.

For data set [3], the system named is A172-R cells. Briefly: Flow cytometric analysis of the DNA cell cycle, A172-R. In kind it is cell-based, human. Conditions: 10 μM BMX alone, 48 hrs. Here is the method:
(§1) For the DNA cell cycle, following treatment with different doses of BMX (0-10 μM) in the presence or absence of TMZ (50 μM) for 48 hrs, the cells were harvested through trypsinization, washed twice with phosphate-buffered saline, and fixed in methanol. The cells were then washed again, subjected to RNase A at a final concentration of 0.05 mg/mL (Sigma-Aldrich; Merck Millipore, Darmstadt, Germany), and incubated with 10 μg/mL propidium iodide (PI; Sigma-Aldrich; Merck Millipore) at 4° C. for 15 min in the dark. Cell cycle analysis was conducted using a fluorescence-activated cell sorting (FACS) flow cytometer (Attune NxT flow cytometer, Thermo Fisher Scientific).

In data set [4] the test system is U87MG-R cells. Briefly: Flow cytometric analysis of the DNA cell cycle, U87MG-R. In kind it is cell-based, human. Conditions: 10 μM BMX alone, 48 hrs. Here is the method:
as §1

In data set [5] the test system is GBM-R cells (U87MG-R and A172-R). Briefly: GBM-R cell viability time course (FIG. 2F). The data set is classed as cell-based, human. The settings on record: BMX 10 μM alone, FIG. 2F (24, 48, and 72 hrs). How it is done:
(A) Chemical structure of BMX. (B) Cell viability of GBM and GBM-R cell lines after treatment with 0.5, 10, 15, 30, or 50 μM BMX. (C) Cell viability of GBM and GBM-R cell lines after treatment with 0.25, 50, 100, 200, 400, or 800 μM TMZ. (D) GBM and GBM-R cell viability after treatment with 10 μM BMX with or without TMZ at various concentrations (0.25, 50, 100, 200, 400, or 800 μM) for 24 hrs. (E) GBM and GBM-R cell viability after treatment with 50 μM TMZ with or without BMX at various concentrations (0.5, 10, 15, 30, or 50 μM) for 24 hrs. (F) GBM-R cell viability after treatment with 50 μM TMZ with or without 10 μM BMX for 24, 48, and 72 hrs. (G) Colony formation assay of GBM and GBM-R cell lines with BMX (0, 5, or 10 μM) with or without TMZ (50 μM) for 14 days. Data are represented as means±SEM from three experiments. *p<0.05 vs. control (A172 and U87MG); #p<0.05 vs. (A172-R and U87MG-R).
We plated 3000 GBM cells per well in 96-well plates and allowed them to adhere overnight. To validate cell line responsiveness to BMX and TMZ monotherapy, the cells were treated with different doses of BMX or TMZ for 24, 48, and 72 hrs. […] Following treatment, the absorption value was measured using a CCK8 kit (Targetmol, Shanghai, China) at the indicated time points. […]

For data set [6] the following is noted: statement from literature [22]; cited from earlier work.
In data set [7] the test system is HCT116 cells. Description: Clonogenic (colony formation) assay, HCT116. The data set is classed as cell-based. Conditions: Homo sapiens, HCT-116, 336 h, 14 days, read-out: IC50 values of TMZ, clonogenic assay. How it is done:
(§2) For the anchorage-dependent growth assay, 1000 cells were resuspended in the medium and seeded in 6-well plates. […] After 14 days, the media were removed and the cells were washed and fixed with 4% paraformaldehyde for 30 min, and stained with 0.1% crystal violet for 20 min at 25° C. The intensity of crystal violet was quantified by the absorbance of 570 nm after dissolving the stained cells with dimethyl sulfoxide (DMSO). The results are expressed as the average colony±SE from three independent experiments.

Data set [8] has as its system HT29 cells. Briefly: Clonogenic (colony formation) assay, HT29. In kind it is cell-based. The settings on record: Homo sapiens, HT-29, 336 h, 14 days, read-out: IC50 values of TMZ, clonogenic assay. How it is done:
as §2

The subject of data set [9] is RKO cells. Briefly: Clonogenic (colony formation) assay, RKO. In kind it is cell-based. The settings on record: Homo sapiens, 336 h, 14 days, read-out: IC50 values of TMZ, clonogenic assay. Here is the method:
as §2

Each structure is given as a SMILES string. Where “and” joins values, the source holds several entries; their conditions need not be identical. Identical values can stand only once.

As to `COc1ccc(COc2c(/C=C/C(=O)NO)ccc(OC)c2CC=C(C)C)cc1` [BMX, (E)-2-(4-Methoxybenzyloxy)-3-prenyl-4-methoxy-N-hydroxycinamide], in data set [1], the “expression of P62 and LC3-II” value was “concentration-dependent increase in the expression of P62 and LC3-II”. In data set [2], the early apoptotic cells entry is listed as “up to 23.78%”. Further, the “cells arrested in G0/G1 phase” value in [3] was found to be 70.34%; in data set [4], 77.95%. Moreover, the “cell viability (cytotoxic effect, fold)” value in data set [5] was 0.88 × and 0.77 × and 0.63 ×. In addition, the toxicity entry in data set [6] is listed as “lowest toxicity”.

Regarding `Cn1nnc2c(C(N)=O)ncn2c1=O` [TMZ, Temozolomide, reference compound], the IC50 in data set [7] came out at 138 ± 22.7 µM; in data set [8] it was 359 ± 50.4 µM; in [9], 244 ± 29.4 µM.

These data come from patent publication US11980594B2, “Composition and method for treating a drug-resistant cancer” (NOVELWISE PHARMACEUTICAL CORPORATION, priority 2021, dated 2024).
